Assay results reported in ChEMBL document CHEMBL3351913, “Malonate-based inhibitors of mammalian serine racemase: kinetic characterization and structure-based computational study” (Eur J Med Chem, 2015).

molecular target: T1, Serine racemase (Mus musculus, UniProt Q9QZX7); assay: Inhibition of mouse serine racemase by Lineweaver-Burk plot
T1 sequence (Q9QZX7 whole entry): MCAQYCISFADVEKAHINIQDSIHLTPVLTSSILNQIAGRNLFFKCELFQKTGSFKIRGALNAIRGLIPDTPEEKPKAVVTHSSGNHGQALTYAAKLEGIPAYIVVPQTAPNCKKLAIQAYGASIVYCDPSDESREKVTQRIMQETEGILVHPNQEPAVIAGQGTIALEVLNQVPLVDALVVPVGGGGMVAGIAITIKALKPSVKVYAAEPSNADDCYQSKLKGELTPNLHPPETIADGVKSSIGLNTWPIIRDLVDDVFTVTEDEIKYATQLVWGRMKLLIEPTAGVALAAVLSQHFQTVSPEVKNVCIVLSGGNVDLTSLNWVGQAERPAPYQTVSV

| SMILES | Ki |
| --- | --- |
| O=C(O)CC(=O)O [MALONIC ACID] | 27 µM |
| O=C(O)C(Cl)(Cl)C(=O)O | 19 µM |

molecular target: T1, Serine racemase; assay: Inhibition of mouse serine racemase using L-serine substrate by reversed-phase HPLC analysis

| SMILES | IC50 |
| --- | --- |
| O=C(O)CC(=O)O [MALONIC ACID] | 67 µM |
| O=C(O)C(C(=O)O)c1ccsc1 | 7030 µM |
| O=C(O)C(O)C(=O)O | 94 µM |
| O=C(O)C(F)(F)C(=O)O | 2160 µM |
| O=C(O)C(Cl)C(=O)O | 780 µM |
| NC(C(=O)O)C(=O)O | 400 µM |
| O=C(O)C(Cl)(Cl)C(=O)O | 57 µM |
| CC(C(=O)O)C(=O)O [METHYLMALONIC ACID] | 1850 µM |
| O=C(O)C(CO)(CO)C(=O)O | 40600 µM |
| CC(C)(C(=O)O)C(=O)O | 5630 µM |
